Data on 1 compound can be found in US10537549B2, “Dihydroisoxazole compound for use in controlling sea lice” (Elanco Tiergesundheit AG, priority 2016, dated 2020).

Experiment [1] deals with Lepeophtheirus Salmonis (copepodids, MERL resistant strain IoA-01) on Atlantic Salmon. Put plainly: Activity in vivo against Lepeophtheirus salmonis on Atlantic Salmon using in-feed application. The note with it: in-feed 5 mg/kg/day for 7 days. How it is done:
Activity In Vivo Against Lepeophtheirus Salmonis on Atlantic Salmon Using in-Feed Application
60 Salmon (Atlantic Salmon, S. salar) of average weight 306.5 g are treated with medicated pellets containing the compound of Example 1 (test compound) at a dose of 5 mg/kg/day during 7 consecutive days. The medicated pellets are prepared by dry coating commercially available fish feed pellets with pre-mix containing the test compound to reach a content of […] test compound in the fish feed, sealing with 1% fish oil and administering at a 1% feeding rate. The treatment is carried out in sea water. After treatment, the fish are challenged with copepodids (the MERL resistant strain IoA-01) on 35, 100 and 150 days post-treatment. During the study the water temperature varies between 7 and 10° C. Fish weight and sea louse numbers are assessed 42, 107 and 157 days post-treatment. Counts are conducted on 30 fish at each sampling occasion.
Efficacy is determined by comparison with a negative control (placebo) group.
Efficacy is calculated using the formula: % Efficacy=100−(100×mean of treatment group/mean of control).
All fish are anaesthetized with 2-phenoxy-ethanol and examined for louse settlement under a dissecting microscope. After counting, fish are returned to the tanks.

Experiment [2] relates to Lepeophtheirus Salmonis at Copepodid Stage. Kind of experiment: Activity in vitro against Lepeophtheirus salmonis at copepodid stage. The note with it: 1 hour contact, then 48 h in untreated sea water. How it is done: Stir a mixture of 3-[(5S)-5-(3,4,5-trichlorophenyl)-5-(trifluoromethyl)-4H-isoxazol-3-yl]-4,5,6,7-tetrahydro-2-benzothiophene-1-carboxylic acid (15.00 g, 30.08 mmol), 2-amino-N-prop-2-ynyl-acetamide (4.90 g, 33.09 mmol, HCl), 1-[bis(dimethylamino)methylene]-1H-1,2,3-triazolo[4,5-b]pyridinium 3-oxid hexafluorophosphate (13.72 g, 36.10 mmol) and N,N-diisopropylethylamine (11.66 g, 90.24 mmol) in dichloromethane (500 mL) at 25° C. for 12 hours. Use thin layer chromatography (petroleum ether:ethyl acetate=3:1, Rf=0.30) to show the reaction progress. Dilute the mixture in water (500 mL) and extract with dichloromethane (500 mL×3). Wash the organic layer with brine (500 mL), dry over sodium sulfate, filter and concentrate under reduced pressure to dryness. […]

In the case of `C#CCNC(=O)CNC(=O)c1sc(C2=NO[C@@](c3cc(Cl)c(Cl)c(Cl)c3)(C(F)(F)F)C2)c2c1CCCC2` [Example 1, N-[2-oxo-2-(prop-2-ynylamino)ethyl]-3-[(5S)-5-(3,4,5-trichlorophenyl)-5-(trifluoromethyl)-4H-isoxazol-3-yl]-4,5,6,7-tetrahydro-2-benzothiophene-1-carboxamide], the “% Efficacy vs placebo group (sea louse counts)” value in experiment [1] (challenge 35 days post treatment (counts at 42 days)), in experiment [1] (challenge 100 days post treatment (counts at 107 days)) and in experiment [1] (challenge 150 days post treatment (counts at 157 days)) was 100% in each case. In addition, the “efficacy (no copepodid moves over a period of 80 seconds)” value in experiment [2] (0.5 ng/ml sea water) is listed as 100%. The “minimal effective dose (MED): dose showing 100% efficacy” value in experiment [2] (serial dilution) is ≤ 0.5 ng/ml sea water.
